What was measured:
TNF-α = assay: Cell-based TNF-α inhibition assay in LPS-induced PBMCs (Meso Scale); conditions: PBMC, PBMCs pretreated 1 h, LPS 100 ng/mL 18-24 h, relative to stimulated DMSO control; for inhibition at 1 µM: compound concentration 1 μM; for inhibition at 0.1 µM: compound concentration 0.1 μM
Method: Frozen primary blood mononuclear cells (PBMCs) were quick thawed, washed once with RPMI 1640 media supplemented with 10% fetal bovine serum, 1% penicillin, and 1% streptomycin, and plated in a 96 well plate at 200,000 cells per well. The cells were pretreated with DMSO only as a control or a compound for 1 h, and then induced with LPS (lipopolysaccharide) (100 ng/mL) for 18-24 h. The supernatant was analyzed for TNF-α using the Meso Scale assay. Compound activity was determined as a percentage of the stimulated DMSO control. The results are summarized in Table 1, where A represents a percent inhibition value ≥60%; B represents a percent inhibition value <60% and ≥40%; C represents a percent inhibition value <40% and >20%; and D represents a single percent inhibition value <20%.

PDE4B = molecular target: T1, PDE4B (Homo sapiens, UniProt Q07343); assay: Protein degradation assay in A549 cells, western blot, PDE4B; assay type: cell-based; conditions: 24 h treatment, read-out: PDE4B degradation relative to DMSO
T1 construct: Whole cell extracts were prepared using an immunoprecipitation (IP) lysis buffer; endogenous in cells; host or cells: A549
Method: A549 cells were grown in RPMI 1640 media supplemented with 10% fetal bovine serum, streptomycin, and penicillin. The cells were plated in 6-well plates in the growth media. The next day, fresh growth media were replaced on the cells. The cells were then treated with a compound for 24 h at predetermined concentrations. Whole cell extracts were prepared using an immunoprecipitation (IP) lysis buffer. Briefly, the cells were washed once in PBS, and the cell pellets were resuspended in the IP lysis buffer and incubated for 15 min on ice. Cells debris was removed by centrifugation and the cleared whole cell lysates were transferred to new tubes for further analysis.
For a western blot analysis, the whole cell protein extracts were separated on 4-12% SDS-polyacrylamide gels, transferred to nitrocellulose, and probed with primary antibodies. Membranes were subsequently washed and probed with IRDYE® secondary antibodies. The signals were detected using an ODYSSEY® Imaging System. The antibodies used in the assay included anti-PDE4B antibody; anti-PDE4D antibodies (top, bottom, and short isoform); β-actin mouse monoclonal antibody; IRDYE® 680RD goat anti-rabbit antibody; and IRDYE® 800CW goat anti-mouse antibody. Compounds B2 to B4, B18, B49 to B52, B76, B77, B79, B81 to B83, B88, B89, and B91 were determined to be able to degradate PDE4B as high as about 50% relative to DMSO.

T1 sequence (Q07343 whole entry): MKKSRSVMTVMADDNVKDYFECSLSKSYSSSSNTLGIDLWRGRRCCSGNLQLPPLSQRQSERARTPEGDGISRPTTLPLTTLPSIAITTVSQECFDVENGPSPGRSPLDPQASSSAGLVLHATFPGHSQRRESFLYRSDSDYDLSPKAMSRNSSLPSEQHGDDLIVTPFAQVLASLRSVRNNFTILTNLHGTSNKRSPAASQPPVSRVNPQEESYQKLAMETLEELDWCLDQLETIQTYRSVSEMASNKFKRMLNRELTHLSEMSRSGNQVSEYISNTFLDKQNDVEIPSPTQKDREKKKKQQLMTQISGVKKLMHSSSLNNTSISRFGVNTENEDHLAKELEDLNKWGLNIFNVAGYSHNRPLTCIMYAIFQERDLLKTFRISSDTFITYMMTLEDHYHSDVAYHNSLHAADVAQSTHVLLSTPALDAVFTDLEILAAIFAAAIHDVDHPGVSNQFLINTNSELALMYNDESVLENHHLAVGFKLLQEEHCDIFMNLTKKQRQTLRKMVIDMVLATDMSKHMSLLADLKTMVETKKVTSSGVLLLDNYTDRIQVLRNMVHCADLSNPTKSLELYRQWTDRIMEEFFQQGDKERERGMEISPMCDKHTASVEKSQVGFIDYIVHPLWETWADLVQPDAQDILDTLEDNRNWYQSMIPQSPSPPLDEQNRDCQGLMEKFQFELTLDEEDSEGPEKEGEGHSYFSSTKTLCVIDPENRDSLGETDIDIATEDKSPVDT

Dmax (PDE4B) [%]	SMILES	inhibition at 1 µM (TNF-α) [%]	inhibition at 0.1 µM (TNF-α) [%]
	COc1ccc(C2CNC(=O)C2)cc1OCCCCCCCCC(=O)N[C@H](C(=O)N1C[C@H](O)C[C@H]1C(=O)NCc1ccc(-c2scnc2C)cc1)C(C)(C)C (stereo partly drawn) [Compound B67, (2S,4R)-4-Hydroxy-1-((2S)-2-(9-(2-methoxy-5-(5-oxopyrrolidin-3-yl)phenoxy)-nonanamido)-3,3-dimethylbutanoyl)-N-(4-(4-methylthiazol-5-yl)benzyl)pyrrolidine-2-carboxamide]	≥ 60	
	Cc1ncsc1-c1ccc(CNC(=O)[C@@H]2C[C@@H](O)CN2C(=O)[C@@H](NC(=O)CCCCCCCCOc2cc(C(=O)Nc3c(Cl)cncc3Cl)ccc2OC(F)F)C(C)(C)C)cc1 [Compound B68, (2S,4R)-1-((S)-2-(9-(5-((3,5-Dichloropyridin-4-yl)carbamoyl)-2-(difluoromethoxy)phenoxy)nonanamido)-3,3-dimethylbutanoyl)-4-hydroxy-N-(4-(4-methylthiazol-5-yl)benzyl)pyrrolidine-2-carboxamide]	≥ 60	≥ 60
	CCOc1cc([C@@H](CS(C)(=O)=O)N2C(=O)c3cc(CCCN4CCC(c5cc(F)cc6c5CN(C5CCC(=O)NC5=O)C6=O)CC4)cc(NC(C)=O)c3C2=O)ccc1OC (stereo partly drawn) [Compound B69, N-(6-(3-(4-(2-(2,6-Dioxopiperidin-3-yl)-6-fluoro-1-oxoisoindolin-4-yl)piperidin-1-yl)propyl)-2-((S)-1-(3-ethoxy-4-methoxyphenyl)-2-(methylsulfonyl)ethyl)-1,3-dioxoisoindolin-4-yl)acetamide]	≥ 60	40 to 60
	CCOc1cc([C@@H](CS(C)(=O)=O)N2C(=O)c3cccc(NC(=O)CCCCCCCCNCc4ccc(OCc5scc6c5CN(C5CCC(=O)NC5=O)C6=O)cc4)c3C2=O)ccc1OC (stereo partly drawn) [Compound B70, 9-((4-((5-(2,6-Dioxopiperidin-3-yl)-4-oxo-5,6-dihydro-4H-thieno[3,4-c]pyrrol-1-yl)methoxy)benzyl)amino)-N-(2-((S)-1-(3-ethoxy-4-methoxyphenyl)-2-(methylsulfonyl)ethyl)-1,3-dioxoisoindolin-4-yl)nonanamide]	≥ 60	≥ 60
	CCOc1cc([C@@H](CS(C)(=O)=O)N2C(=O)c3cccc(NC(=O)CCCCCCCCCCCNc4cccc5c4C(=O)N(C4CCC(=O)NC4=O)C5=O)c3C2=O)ccc1OC (stereo partly drawn) [Compound B71, 12-((2-(2,6-Dioxopiperidin-3-yl)-1,3-dioxoisoindolin-4-yl)amino)-N-(2-((S)-1-(3-ethoxy-4-methoxyphenyl)-2-(methylsulfonyl)ethyl)-1,3-dioxoisoindolin-4-yl)dodecanamide]	≥ 60	≥ 60
	O=C1CCC(N2C(=O)c3cccc(NCCCCCCCOc4cc(C(=O)Nc5c(Cl)cncc5Cl)ccc4OC(F)F)c3C2=O)C(=O)N1 (stereo not shown) [Compound B72, N-(3,5-Dichloropyridin-4-yl)-4-(difluoromethoxy)-3-((7-((2-(2,6-dioxopiperidin-3-yl)-1,3-dioxoisoindolin-4-yl)amino)heptyl)oxy)benzamide]	≥ 60	≥ 60
	O=C1CCC(N2Cc3c(cc(F)cc3C3CCN(CCCCCCCCCCCCOc4cc(C(=O)Nc5c(Cl)cncc5Cl)ccc4OC(F)F)CC3)C2=O)C(=O)N1 (stereo not shown) [Compound B73, N-(3,5-Dichloropyridin-4-yl)-4-(difluoromethoxy)-3-((12-(4-(2-(2,6-dioxopiperidin-3-yl)-6-fluoro-1-oxoisoindolin-4-yl)piperidin-1-yl)dodecyl)oxy)benzamide]	≥ 60	≥ 60
	O=C1CCC(N2C(=O)c3cccc(NCCOCCOCCOCCOc4ccc(C(=O)Nc5c(Cl)cncc5Cl)cc4OC(F)F)c3C2=O)C(=O)N1 (stereo not shown) [Compound B74, N-(3,5-Dichloropyridin-4-yl)-3-(difluoromethoxy)-4-(2-(2-(2-(2-((2-(2,6-dioxopiperidin-3-yl)-1,3-dioxoisoindolin-4-yl)amino)ethoxy)ethoxy)ethoxy)ethoxy)benzamide]	≥ 60	≥ 60
	CCOc1cc([C@@H](CS(C)(=O)=O)N2C(=O)c3cccc(NC(=O)CCCCCCCCN4CCC(c5cc6c(cc5F)C(=O)N(C5CCC(=O)NC5=O)C6)CC4)c3C2=O)ccc1OC (stereo partly drawn) [Compound B75, 9-(4-(2-(2,6-Dioxopiperidin-3-yl)-6-fluoro-1-oxoisoindolin-5-yl)piperidin-1-yl)-N-(2-((S)-1-(3-ethoxy-4-methoxyphenyl)-2-(methylsulfonyl)ethyl)-1,3-dioxoisoindolin-4-yl)nonanamide]	≥ 60	≥ 60
	CCOc1cc([C@@H](CS(C)(=O)=O)N2C(=O)c3cccc(NC(=O)CCCCNCc4ccc(OCc5scc6c5CN(C5CCC(=O)NC5=O)C6=O)cc4)c3C2=O)ccc1OC (stereo partly drawn) [Compound B78, 5-((4-((5-(2,6-Dioxopiperidin-3-yl)-4-oxo-5,6-dihydro-4H-thieno[3,4-c]pyrrol-1-yl)methoxy)benzyl)amino)-N-(2-((S)-1-(3-ethoxy-4-methoxyphenyl)-2-(methylsulfonyl)ethyl)-1,3-dioxoisoindolin-4-yl)pentanamide]	≥ 60	
	COc1ccc(N2Cc3sccc3C2=O)cc1OCCCCCCCN1CCC(c2cc(F)cc3c2CN(C2CCC(=O)NC2=O)C3=O)CC1 (stereo not shown) [Compound B80, 3-(6-Fluoro-4-(1-(7-(2-methoxy-5-(4-oxo-4,6-dihydro-5H-thieno[2,3-c]pyrrol-5-yl)phenoxy)heptyl)piperidin-4-yl)-1-oxoisoindolin-2-yl)piperidine-2,6-dione]	≥ 60	
≤ 50	O=C1CCC(N2Cc3c(NCCCOCCOCCOCCOc4ccc(C(=O)Nc5c(Cl)cncc5Cl)cc4OCC4CC4)cccc3C2=O)C(=O)N1 (stereo not shown) [Compound B81, 3-(Cyclopropylmethoxy)-N-(3,5-dichloropyridin-4-yl)-4-(2-(2-(2-(3-((2-(2,6-dioxopiperidin-3-yl)-1-oxoisoindolin-4-yl)amino)propoxy)ethoxy)ethoxy)ethoxy)benzamide]		
	O=C1CCC(N2Cc3c(cc(F)cc3C3CCN(CCCCCCCCCOc4ccc(C(=O)Nc5c(Cl)cncc5Cl)cc4OCC4CC4)CC3)C2=O)C(=O)N1 (stereo not shown) [Compound B84, 3-(Cyclopropylmethoxy)-N-(3,5-dichloropyridin-4-yl)-4-((9-(4-(2-(2,6-dioxopiperidin-3-yl)-6-fluoro-1-oxoisoindolin-4-yl)piperidin-1-yl)nonyl)oxy)benzamide]	≥ 60	
	CC(=O)NC(=O)C(C)N1Cc2c(cc(F)cc2C2CCN(CCCCCCCCCOc3cc(C(=O)Nc4c(Cl)cncc4Cl)ccc3OC(F)F)CC2)C1=O (stereo not shown) [Compound B85, 3-((9-(4-(2-(1-Acetamido-1-oxopropan-2-yl)-6-fluoro-1-oxoisoindolin-4-yl)piperidin-1-yl)nonyl)oxy)-N-(3,5-dichloropyridin-4-yl)-4-(difluoromethoxy)benzamide]	20 to 40	
	Cc1ncsc1-c1ccc(CNC(=O)[C@@H]2C[C@@H](O)CN2C(=O)[C@@H](NC(=O)CCCCCCCCOc2cc(C(=O)Nc3c(Cl)cncc3Cl)ccc2OCC2CC2)C(C)(C)C)cc1 [Compound B86, (2S,4R)-1-((S)-2-(9-(2-(Cyclopropylmethoxy)-5-((3,5-dichloropyridin-4-yl)carbamoyl)phenoxy)nonanamido)-3,3-dimethylbutanoyl)-4-hydroxy-N-(4-(4-methylthiazol-5-yl)benzyl)pyrrolidine-2-carboxamide]	≥ 60	
≤ 50	CCOc1cc([C@@H](CS(C)(=O)=O)N2C(=O)c3cc(CCCCCCCC4CCN(c5cccc6c5C(=O)N(C5CCC(=O)NC5=O)C6=O)CC4)cc(NC(C)=O)c3C2=O)ccc1OC (stereo partly drawn) [Compound B88, N-(6-(7-(1-(2-(2,6-Dioxopiperidin-3-yl)-1,3-dioxoisoindolin-4-yl)piperidin-4-yl)heptyl)-2-((S)-1-(3-ethoxy-4-methoxyphenyl)-2-(methylsulfonyl)ethyl)-1,3-dioxoisoindolin-4-yl)acetamide]		
≤ 50	CCOc1cc([C@@H](CS(C)(=O)=O)N2C(=O)c3cccc(NC(=O)CCOCCOCCNc4cccc5c4C(=O)N(C4CCC(=O)NC4=O)C5=O)c3C2=O)ccc1OC (stereo partly drawn) [Compound B89, 3-(2-(2-((2-(2,6-Dioxopiperidin-3-yl)-1,3-dioxoisoindolin-4-yl)amino)ethoxy)ethoxy)-N-(2-((S)-1-(3-ethoxy-4-methoxyphenyl)-2-(methylsulfonyl)ethyl)-1,3-dioxoisoindolin-4-yl)propanamide]		
